From patent EP3235511A1, “SULPHONAMIDE COMPOUNDS FOR USE IN THE TREATMENT OF HHV-8-ASSOCIATED DISEASES” (UNIVERSITA' DEGLI STUDI DI CAGLIARI, priority 2016, dated 2017)
In brackets after ≈: the same amount, converted by molar mass. Where two headings read alike, the source gives them in different places.

Assays:
KSHV virus [1] = conditions: lytic stage; cited from earlier work
KSHV virus [2] = conditions: latent stage; cited from earlier work
MDM2-p53 complex = molecular target: T1, MDM2-p53 complex (Homo sapiens, UniProt Q00987); test: ELISA-based P53-MDM2 binding assay
T1 construct: purchased Sigma
Protocol: In short, 96-well ELISA micro-plates (from Greiner Bio One, Austria) were coated for incubation overnight with 2 µg/mL p53 (human recombinant from Sigma) in PBS at 4 °C. The next day, the coating buffer was removed and the plates were incubated with Chemi-Blocker blocking buffer (from Merck-Millipore, Italy) for 2 hours at room temperature to block non-specific protein binding sites on the plate. […] The compounds under test were dissolved in DMSO (dimethyl sulfoxide, 5 mg/mL stock solution) and diluted in blocking buffer to obtain a final concentration of 50 µg/mL. The total incubation time of GST-MDM2 was 1 h. In order to evaluate the possible interactions of the compounds of the invention with, alternately, p53 and/or MDM2, the tests were conducted in three ways: a) pre-incubation with p53: the compounds were added to the coated micro-wells 30 min. before the GST-MDM2; b) pre-incubation with MDM2: the compounds were added to the GST-MDM2 solution for 30 minutes before adding to the wells; c) incubation after the formation of the p53-MDM2 complex: the compounds were added to the wells 30 minutes after treatment of GST-MDM2. After incubation, the plates were washed 4 times with PBST to remove the unbound MDM2 and incubated with a specific rabbit anti-GST monoclonal antibody (Sigma) diluted in 1/2000 blocking buffer for 1 h, followed by washing and incubation with a secondary immunoglobulin antibody conjugated with 1/200 anti-rabbit (horseradish) HR-peroxidase for 1 h (goat anti-rabbit IgG-HRP, Sigma). […] The absorbance was measured with a Microtiter plate reader (Model 680, from Bio-Rad, Hercules, CA) equipped with a 450 nm filter and the respective luminescence units (RLU) were measured. The inhibition percentage of the p53-MDM2 complex was calculated as follows: […]
Data are expressed as µg/mL ± SE average of three independent experiments.

HHV 8 in latent stage = test: Detection of latent HHV 8 DNA by RT-PCR in BC3 cells; format: cell-based; conditions: BC-3, 144 h, 6 days of culture, drug 100 µM, read-out: inhibition of viral DNA (antiviral activity)
Protocol: The antiviral activity of the sulphonamide compounds of the present invention was investigated using two different types of tests. In the first one, the DNA of HHV 8 in latent stage was detected by RT-PCR (Real Time- Polymerase Chain Reaction) (see Fig. 1) and in the second one, the LANA antigen was tested using a flow cytometric assay.

[3] = Cytotoxicity (MTT cell viability) on BC3 cells; format: cell-based; conditions: human
Protocol: (§1) A stock of human HUVEC umbilical cord primary cells (Invitrogen Life Technologies, UK) was cultured in a culture medium M200 (Gibco, Life Technologies, UK) with low serum growth supplement (LSGS, Invitrogen Life Technologies, UK). The HUVEC cells were always kept in a semi-confluent state and were sub-cultured at least once a week. Prior to testing, the cells were sub-cultured no more than 3-5 times. The BC3 cells permanently infected with HHV 8 were cultured in a RPMI 1640 medium supplemented with a 10% fetal calf serum (FCS) (Invitrogen Life Technologies, UK). The BC3 cells were used to produce 100x concentrated stocks of HHV 8, as described in the literature. The pellets of the virus was suspended in RPMI, filtered through a 0.22 µm filter and stored at -80 °C until use. The quantitative analysis of viral genomes present in the stock preparation was obtained by a real-time polymerase chain reaction (qPCR). […] For infection of cells, approximately 5.0 x 10^4 HUVEC cells/mL were seeded in 12 multi-well plates. The cells were infected with HHV 8, concentrated to a multiplicity of at least 10-20 genomes per cell in an M200 containing 2 µg/mL polibrene (esadimetrin bromide) for 2 hours at 37 °C. […] Only cell mono-layers with at least 70-80% of HHV 8 infected cells were used for the experiments.

in vitro = conditions: human, thp-1 cells
Protocol: The THP-1 cells were purchased from Life Technologies (UK) and were cultured in RPMI 1640 medium with 10% fetal bovine serum (FBS).
The cytotoxicity of the compounds under test was assessed by measuring the effect on the cell morphology and the cell viability in vitro. Cell mono-layers were prepared in 24-well tissue culture plates and exposed to various concentrations of the compounds being tested.
The plates were controlled by optical microscopy after 24, 48 and 72 h. Cytotoxicity was evaluated as morphologic changes (for example, rounding, contractions, detachments). The cell viability was determined by means of a tetrazolium-based colorimetric method using the compound 3-(4,5-dimethylthiazol-2-yl)-2,5-diphenyl-tetrazolium bromide (MTT). The cytotoxic dose of 50% (CD50) is the concentration of the compound which reduces the absorbency of the control sample by 50%.

[4] = Cytotoxicity (MTT cell viability) on HUVEC primary cells; format: cell-based; conditions: human
Protocol: as §1

[5] = read-out: inhibition of MDM2-p53 complex formation

T1 sequence (Q00987 whole entry, one chain of several): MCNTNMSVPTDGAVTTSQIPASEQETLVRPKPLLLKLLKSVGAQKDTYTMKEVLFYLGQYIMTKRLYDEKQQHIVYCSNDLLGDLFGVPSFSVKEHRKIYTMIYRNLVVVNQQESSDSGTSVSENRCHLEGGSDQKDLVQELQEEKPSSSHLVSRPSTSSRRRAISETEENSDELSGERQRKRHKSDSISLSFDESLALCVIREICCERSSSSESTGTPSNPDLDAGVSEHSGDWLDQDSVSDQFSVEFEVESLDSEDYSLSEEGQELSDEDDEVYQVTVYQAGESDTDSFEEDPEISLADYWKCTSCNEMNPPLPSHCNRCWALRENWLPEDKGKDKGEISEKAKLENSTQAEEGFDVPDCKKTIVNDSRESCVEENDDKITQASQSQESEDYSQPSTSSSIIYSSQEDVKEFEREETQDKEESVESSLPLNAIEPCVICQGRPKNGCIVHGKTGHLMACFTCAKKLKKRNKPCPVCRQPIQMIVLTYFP

| SMILES | Action on the lytic virus (KSHV virus [1]) | Action on the latent virus (KSHV virus [2]) | inhibition at 100 µM (HHV 8 in latent stage) | other results |
| --- | --- | --- | --- | --- |
| Nc1nc2c(ncn2COCCO)c(=O)[nH]1 [Acyclovir] | inhibition | no inhibition | – | – |
| Cc1cc(NS(=O)(=O)c2ccc(N)cc2)no1 [BC6, sulfamethoxazole] | – | – | 93% | inhibition at 50 µg/mL (MDM2-p53 complex; [5]): 56% |
| O=C(O)P(=O)(O)O [Foscarnet] | inhibition | no inhibition | – | – |
| CC1(C)[C@@H](O[C@H]2O[C@H](C(=O)O)[C@@H](O)[C@H](O)[C@H]2O[C@@H]2O[C@H](C(=O)O)[C@@H](O)[C@H](O)[C@H]2O)CC[C@]2(C)[C@H]3C(=O)C=C4[C@@H]5C[C@@](C)(C(=O)O)CC[C@]5(C)CC[C@@]4(C)[C@]3(C)CC[C@@H]12 [Glycyrrhizic acid] | inhibition | Apoptosis | – | – |
| Nc1ccc(S(N)(=O)=O)cc1 [SA4, sulphanilamide] | – | – | 92% | inhibition at 50 µg/mL (MDM2-p53 complex; [5]): 50% |
| [H]/N=C(/N)NS(=O)(=O)c1ccc(N)cc1 [SG3, sulphaguanidine] | – | – | 52.3% | CC50 [3]: 100 µg/mL (≈ 467 µM); CC50 (in vitro): ~125 µg/mL (≈ 583 µM); CC50 [4]: ~500 µg/mL (≈ 2330 µM) |
| Nc1ccc(S(=O)(=O)Nc2nccs2)cc1 [ST5, sulfathiazole] | – | – | 88.5% | CC50 [3]: 100 µg/mL (≈ 393 µM); inhibition at 50 µg/mL (MDM2-p53 complex; added to the ELISA wells 60 minutes after the complex had formed, 50 µg/mL, p = < 0.01, read-out: breaking down the complex already formed): ~48%; inhibition at 50 µg/mL (MDM2-p53 complex; compound added before the formation of the complex, 50 µg/mL, read-out: inhibition of MDM2-p53 complex formation): ~70%; CC50 (in vitro): ~30 µg/mL (≈ 117 µM); CC50 [4]: ~250 µg/mL (≈ 979 µM) |
